# What was measured:
# [1] = tested on: HEK 293T wt; experiment: CCBSA microplate calcium flux on HEK 293T wild type cells (specificity control); format: cell-based
# Experimental: (§1) A solution of BP including SA, OBP and/or olfactory mucus (see concentration in the text) was incubated in the presence of odorant in a sealed flask for 16 hours at 4° C. (FIG. 3A). Such incubated-BP solution was then used as tested complex on olfactory receptor-expressing cells. Prior to incubation with such complex, cells were incubated for 1 hour with 4 μM Fluo4-AM (Molecular Probe) in the presence of 1 mM probenecid, and then rinsed twice with Fluo4-AM free HBSS buffer. After injection of odorant-BP complex on OR expressing cells, calcium flux was followed by measuring fluorescence at 520 nm ([…]) on FDSS, a plate reader from Hamamatsu Photonics K.K. (Japan) at 25° C.
# For this novel assay, mOR-I7 activation was assessed by octanal. A constant volume of olfactory mucus was incubated in the presence of increasing amount of octanal ranging from 0 to 16 μl of a solution of 1M octanal. […] Calcium flux was followed with Fluo4 on FDSS, a plate reader from Hamamatsu Photonics K.K. (Japan).
# However this fraction 4 contained two major proteins, bOBP and BSA. […] Calcium-flux was followed on a plate reader (Hamamatsu Photonics K.K., Japan) with fluo4 as fluorescent dye (FIG. 6 A to F). […] Such phenomenon is usually observed in such fluorescence assay when increasing ligand concentrations are injected.
# [2] = target: T1, mOR-I7 (Mus musculus, UniProt Q9QWU6); experiment: Novel olfactory functional assay (CCBSA), microplate calcium flux (Fluo4, FDSS) on HEK 293T overexpressing mOR-I7; format: cell-based; details: for hit / potential ligand of mOR-I7 in screening of 30 odorants: carrier fraction 4 (bOBP and BSA) incubated with 16 μl of 1M odorant, ratio mOR-I7 on Wt, standardized to 1 mM ATP
# T1 construct: expressed in transfected cells; host or cells: HEK 293T
# T1 sequence (Q9QWU6 1-327): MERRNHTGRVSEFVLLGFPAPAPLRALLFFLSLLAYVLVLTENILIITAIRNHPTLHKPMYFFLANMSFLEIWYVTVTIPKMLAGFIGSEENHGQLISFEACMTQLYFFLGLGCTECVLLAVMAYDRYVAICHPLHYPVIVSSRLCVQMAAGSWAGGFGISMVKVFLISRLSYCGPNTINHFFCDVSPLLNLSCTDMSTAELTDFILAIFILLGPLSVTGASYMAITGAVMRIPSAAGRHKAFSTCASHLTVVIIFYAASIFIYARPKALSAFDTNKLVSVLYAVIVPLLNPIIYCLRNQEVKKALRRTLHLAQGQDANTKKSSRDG
# Experimental: as §1
# In an attempt to be closer to physiological process of olfaction and thereof to increase specificity and sensitivity of the cell-based assay described above, a novel olfactory functional assay was developed. Most of the time, mammalian smells volatile odorant molecules. However in the cell-based assay described above as in most cell-based assays, odorant molecules were injected into aqueous buffer. Such injection may lead to formation of micelles that can alter efficacy and specificity of ligands. Therefore a cell-based assay was developed focusing an a better solubilization of odorants. In summary, in a sealed flask, bovine olfactory mucus was incubated in the presence of an odorant (FIG. 3A). It was hereby tested if an odorant would be trapped and solubilized in that fluid. Thereafter, such solubilized odorant was injected onto cultured-cells overexpressing an olfactory receptor. Activation of this receptor could then be followed by conventional assay including fluorescent (FIGS. 3 B and C) and luminescent calcium assays.
# For this novel assay, mOR-I7 activation was assessed by octanal. A constant volume of olfactory mucus was incubated in the presence of increasing amount of octanal ranging from 0 to 16 μl of a solution of 1M octanal. After 16 hours incubation at 4° C., bovine olfactory mucus was injected on HEK 293T overexpressing mOR-I7. Calcium flux was followed with Fluo4 on FDSS, a plate reader from Hamamatsu Photonics K.K. (Japan).
# Capacity of fraction 4 to fulfil the role of odorant solubilizator was assessed in the newly proposed assay. Screening of 30 odorant molecules (FIG. 5A) was performed on HEK 293T wild type (FIG. 5C) or overexpressing mOR-I7 (FIG. 5B). Fraction 4 was incubated overnight at 4° C. […] These odorants led to at least one fold more activation of HEK 293T overexpressing mOR-I7 than the wild type counterpart. They can be classified into two groups. One group (FIG. 5 E (a) to (e)) gathers molecules that fit the olfactophore 1 depicted in FIG. 5 E (j). They are schematically made of 2 electronegative poles distanced by 6 carbons. They all contain a 6-8 carbon chain ended by an electronegative group as depicted by olfactophore 2 represented in FIG. 5 E (k).
# However this fraction 4 contained two major proteins, bOBP and BSA. Thus the results of said Example could in this approach not rule out any implication of BSA into fraction 4 properties. Therefore the capacity of BSA to solubilize and thereof to enhance the efficacy of odorants in the novel cell based olfactory functional assay as described by the present invention has been tested. To be as close as possible to BSA concentration observed in fraction 4. BSA concentration was set up at 5×10^−6 M for the following experiments (marked by an arrow on FIG. 6 G). Fraction 4 and a solution of fatty acid-free BSA were incubated at 4° C. for 16 hours in the presence of increasing volume of 1M octanal. So-incubated solutions were then applied onto HEK 293T wt or overexpressing mOR-I7. Calcium-flux was followed on a plate reader (Hamamatsu Photonics K.K., Japan) with fluo4 as fluorescent dye (FIG. 6 A to F). […] Such phenomenon is usually observed in such fluorescence assay when increasing ligand concentrations are injected. […]
# [3] = fraction 4 or BSA solution incubated with increasing volume of 1M octanal
smiles,measurement,setting,value
CCCCCCCC=O [octanal],cell response on wt cells,[1]; bovine olfactory mucus incubated with octanal,no cell response
same,fluorescence in HEK 293T wt,[1]; fraction 4 or BSA solution (5×10^−6 M) incubated with 1M octanal,no fluorescence appeared
same,hits / potential ligands of mOR-I7 through the 4 screenings,"[2]; BSA as carrier, calcium flux and cAMP screenings together",hits
same,ligands of mOR-I7 in two independent calcium flux screenings of 30 odorants,"[2]; BSA as carrier, standardized to 100 μM ATP",consistent
same,fluorescence intensity (calcium flux),"[2]; bovine olfactory mucus incubated with 0 to 16 μl of 1M octanal, 16 hours 4° C.",proportional to the volume of odorant
same,hit / potential ligand of mOR-I7 in screening of 30 odorants,[2],potential ligands of mOR-I7
same,hit / potential ligand of mOR-I7 in screening of 30 odorants,[2]; listed as 1-octanal,hits
same,calcium flux in HEK 293T overexpressing mOR-I7,"[2]; fraction 4 or BSA solution (5×10^−6 M) incubated with increasing volume of 1M octanal, kinetics over 300 seconds",calcium flux was detected
same,dependence of fluorescence intensity on amount of odorant,[2]; [3],proportional to the amount of odorant
same,time required to reach maximum fluorescence,[2]; [3],decreased when odorant volume increased

# Source: patent US20090136968A1, “Novel in vitro methods for studying receptors recognizing volatile compounds” (Chemcom S. A., priority 2005, published 2009)
